# Results reported in ChEMBL document CHEMBL1157303, “Bioactive triterpenoids from Salvia species” (J Nat Prod, 2006).
# Tests used:
# Mus musculus = experiment: Antiinflammatory activity against croton oil-induced ear edema in mouse; format: functional
# [1] = Inhibition of rat DNA polymerase in absence of bovine serum albumin
# [2] = Inhibition of rat DNA polymerase in presence of bovine serum albumin
SMILES,ID50 (Mus musculus) [µmol],IC50 [1] [µM],IC50 [2] [µM]
COc1ccc2c(c1)c(CC(=O)O)c(C)n2C(=O)c1ccc(Cl)cc1 [INDOMETHACIN],0.26,,
CC1(C)CC[C@]2(C(=O)O)CC[C@]3(C)C(=CC[C@@H]4[C@@]5(C)CC[C@H](O)C(C)(C)[C@@H]5CC[C@]43C)[C@@H]2C1 [OLEANOLIC_ACID],,3.7,7.5
C[C@H]1[C@H](C)CC[C@]2(C(=O)O)CC[C@]3(C)C(=CC[C@@H]4[C@@]5(C)CC[C@H](O)C(C)(C)[C@@H]5CC[C@]43C)[C@H]12 [URSOLIC ACID],0.14,4.8,8.5
